Data set [1] deals with lambsquarter (Chenopodium album). Description: Preemergence herbicidal activity. The format is in vivo. The conditions noted are these: pre-emergent, after 20-22 days; for pest or weed control at 140 g/ha / % Control CHEAL: 140 g ai/ha. The source says: (§1) Seeds of the desired test plant species were planted in a soil matrix prepared by mixing a loam soil (43 percent silt, 19 percent clay, and 38 percent sand, with a pH of about 8.1 and an organic matter content of about 1.5 percent) and sand in a 70 to 30 ratio. The soil matrix was contained in plastic pots with a surface area of 113 square centimeters. When required to ensure good germination and healthy plants, a fungicide treatment and/or other chemical or physical treatment was applied. […] Compound requirements are based upon a 12 mL application volume at a rate of 187 L/ha. Formulated compounds were applied to the plant material with an overhead Mandel track sprayer equipped with a […] nozzles calibrated to deliver 187 L/ha over an application area of 0.503 square meters at a spray height of 18 inches (43 cm) above the soil surface. Control plants were sprayed in the same manner with the solvent blank. The treated pots and control pots were placed in a greenhouse maintained with an approximate 15 hour photoperiod and temperatures of about 23-29° C. during the day and 22-28° C. during the night. Nutrients and water were added on a regular basis and supplemental lighting was provided with overhead metal halide 1000-watt lamps as necessary. The water was added by top-irrigation.

Data set [2] concerns velvetleaf (Abutilon theophrasti). Put plainly: Preemergence herbicidal activity. The conditions noted are these: pre-emergent, after 20-22 days; for pest or weed control at 140 g/ha / % Control ABUTH: 140 g ai/ha. It counts as in vivo.
Excerpt: as §1

Data set [3] deals with redroot pigweed (Amaranthus retroflexus). Description: Preemergence herbicidal activity. It counts as in vivo. As to conditions: pre-emergent, after 20-22 days; for pest or weed control at 140 g/ha / % Control AMARE: 140 g ai/ha.
Excerpt: as §1

The test system of data set [4] is lambsquarter (Chenopodium album). Put plainly: Postemergence herbicidal activity. The format is in vivo. The conditions noted are these: post-emergent, 140 g ai/ha, after 14 days; for pest or weed control at 140 g/ha: Chenopodium album, post-emergence, 336 h, read-out: % Control CHEAL. Put shortly:
(§2)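 Plants grown 7-21 days in greenhouse (about 15 h photoperiod, 23-29° C day, 22-28° C night) to first or second true leaf stage. Compounds in acetone/water/isopropanol/DMSO carrier with crop oil concentrate and Triton X-155 sprayed overhead at 187 L/ha; controls received solvent blank. Plants sub-irrigated afterwards; dose responses analysed by probit analysis.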

For data set [5], the system named is velvetleaf (Abutilon theophrasti). Description: Postemergence herbicidal activity. The format is in vivo. The conditions noted are these: post-emergent, 140 g ai/ha, after 14 days; for pest or weed control at 140 g/ha: Abutilon theophrasti, post-emergence, 336 h, read-out: % Control ABUTH. The essentials: as §2
For data set [6], the system named is redroot pigweed (Amaranthus retroflexus). Put plainly: Postemergence herbicidal activity. The conditions noted are these: post-emergent, 140 g ai/ha, after 14 days; for pest or weed control at 140 g/ha: Amaranthus retroflexus, post-emergence, 336 h, read-out: % Control AMARE. The format is in vivo. Put shortly: as §2
Where [7] appears, read: Chenopodium album, pre-emergence, 480 h, read-out: % Control CHEAL.
Setting [8] is: Abutilon theophrasti, pre-emergence, 480 h, read-out: % Control ABUTH.
Where [9] appears, read: Amaranthus retroflexus, pre-emergence, 480 h, read-out: % Control AMARE.

The values below come from US20070179060A1, “6-(Poly-substituted aryl)-4-aminopicolinates and their use as herbicides” (priority 2006, published 2007).

The structures appear in SMILES notation.

The melting point is the temperature of the solid-liquid transition. `COCc1c(Cl)ccc(-c2cc(N)c(Cl)c(C(=O)OC)n2)c1F` [Compound 3, 4-Amino-3-chloro-6-(4-chloro-2-fluoro-3-methoxymethylphenyl)pyridine-2-carboxylic acid methyl ester]: the melting point is 116 to 117 °C. Further, the pest or weed control at 140 g/ha in data set [1] (setting [7]) came to 95%. The pest or weed control at 140 g/ha in data set [2] (setting [8]) came to 98%. Moreover, the pest or weed control at 140 g/ha in data set [3] (setting [9]) was 100%. Besides, in data set [4], the pest or weed control at 140 g/ha stood at 80%. The pest or weed control at 140 g/ha in data set [5] came out at 100%. Also, the pest or weed control at 140 g/ha in data set [6] stood at 100%.

In turn, `COC(=O)c1nc(-c2ccc(Cl)c(OCC(F)F)c2Cl)cc(N)c1Cl` [Compound 10, 4-Amino-3-chloro-6-[2,4-dichloro-3-(2,2-difluoroethoxy)phenyl]pyridine-2-carboxylic acid methyl ester] showed a melting point of 113 to 115 °C. In data set [1] (Chenopodium album, pre-emergence, 480 h, 280 g ai/ha, read-out: % Control CHEAL), the pest or weed control at 280 g/ha turned out to be 80%. The pest or weed control at 280 g/ha in data set [2] (Abutilon theophrasti, pre-emergence, 480 h, 280 g ai/ha, read-out: % Control ABUTH) was 40%. Moreover, the pest or weed control at 280 g/ha in data set [3] (Amaranthus retroflexus, pre-emergence, 480 h, 280 g ai/ha, read-out: % Control AMARE) came out at 50%. In addition, the pest or weed control at 140 g/ha in data set [4] is 100%. Moreover, in data set [5], the pest or weed control at 140 g/ha was 90%. Besides, in data set [6], the pest or weed control at 140 g/ha was 100%.

For the compound `COC(=O)c1nc(-c2ccc3c(c2F)OCO3)c(F)c(N)c1Cl` [Compound 12, 4-Amino-3-chloro-5-fluoro-6-(2-fluoro-3,4-methylenedioxyphenyl)pyridine-2-carboxylic acid methyl ester], the melting point lay in the range of 151 to 152 °C. Besides, in data set [1] (setting [7]), the pest or weed control at 140 g/ha came out at 100%. The pest or weed control at 140 g/ha in data set [2] (setting [8]) came out at 100%. The pest or weed control at 140 g/ha in data set [3] (setting [9]) is 100%. Further, the pest or weed control at 140 g/ha in data set [4] stood at 100%. Besides, the pest or weed control at 140 g/ha in data set [5] was determined as 100%. In addition, the pest or weed control at 140 g/ha in data set [6] amounted to 100%.

The compound `COC(=O)c1nc(-c2cc(OC)c(Cl)cc2F)c(F)c(N)c1Cl` [Compound 15, 4-Amino-3-chloro-5-fluoro-6-(4-chloro-2-fluoro-5-methoxyphenyl)pyridine-2-carboxylic acid methyl ester] showed a melting point of 168 to 169 °C. In addition, in data set [1] (setting [7]), the pest or weed control at 140 g/ha was determined as 100%. Further, the pest or weed control at 140 g/ha in data set [2] (setting [8]) is 60%. The pest or weed control at 140 g/ha in data set [3] (setting [9]) was determined as 100%. Moreover, the pest or weed control at 140 g/ha in data set [4] came out at 100%. Further, in data set [5], the pest or weed control at 140 g/ha was 100%. Besides, the pest or weed control at 140 g/ha in data set [6] was 100%.

Compound `COC(=O)c1nc(-c2ccc(Cl)c(C)c2F)cc(N)c1Cl` [Compound 49, 4-Amino-3-chloro-6-(4-chloro-2-fluoro-3-methylphenyl)pyridine-2-carboxylic acid methyl ester] yielded a melting point of 116 to 118 °C. For the same compound, in data set [1] (setting [7]), the pest or weed control at 140 g/ha was 99%. The pest or weed control at 140 g/ha in data set [2] (setting [8]) came out at 100%. The pest or weed control at 140 g/ha in data set [3] (setting [9]) worked out at 100%. Further, the pest or weed control at 140 g/ha in data set [4] came out at 90%. For the same compound, the pest or weed control at 140 g/ha in data set [5] was determined as 100%. The pest or weed control at 140 g/ha in data set [6] came out at 80%.

`CCc1c(Cl)ccc(-c2cc(N)c(Cl)c(C(=O)OC)n2)c1F` [Compound 64, 4-Amino-3-chloro-6-(4-chloro-3-ethyl-2-fluorophenyl)pyridine-2-carboxylic acid, methyl ester] showed a melting point of 120 to 122 °C. Moreover, the pest or weed control at 140 g/ha in data set [1] (setting [7]) was determined as 100%. Further, in data set [2] (setting [8]), the pest or weed control at 140 g/ha turned out to be 80%. For the same compound, the pest or weed control at 140 g/ha in data set [3] (setting [9]) was 100%. Also, the pest or weed control at 140 g/ha in data set [4] was 100%. Besides, the pest or weed control at 140 g/ha in data set [5] turned out to be 95%. Also, the pest or weed control at 140 g/ha in data set [6] was 100%.

Consider `COC(=O)c1nc(-c2ccc(Cl)c(C(=O)C(F)(F)F)c2F)cc(N)c1Cl` [Compound 82, 4-Amino-3-chloro-6-[4-chloro-2-fluoro-3-(2,2,2-trifluoroacetyl)phenyl]pyridine-2-carboxylic acid, methyl ester], for which the pest or weed control at 140 g/ha in data set [1] (setting [7]) was found to be 100%; in data set [2] (setting [8]) it was 90%; in data set [3] (setting [9]), 100%; in data set [4] it was 95%; in data set [5], 100%; in data set [6], 100%.

`COC(=O)c1nc(-c2c(F)cc(C#N)c(OC)c2F)cc(N)c1Cl` [Compound 95, 4-amino-3-chloro-6-(4-cyano-2,6-difluoro-3-methoxyphenyl)pyridine-2-carboxylic acid, methyl ester]: the pest or weed control at 140 g/ha in data set [1] (setting [7]) was found to be 90%; in data set [2] (setting [8]), 90%; in data set [3] (setting [9]) it was 90%; in data set [4], 90%; in data set [5] it was 100%; in data set [6] it was 85%.

As to `Nc1cc(-c2ccc(Cl)c(OCC(F)F)c2F)nc(C(=O)O)c1Cl` [Compound 96, 4-Amino-3-chloro-6-(4-chloro-2-fluoro-3-(2,2-difluoroethoxy)phenyl)pyridine-2-carboxylic acid], the pest or weed control at 140 g/ha in data set [1] (setting [7]) stood at 40%; in data set [2] (setting [8]), 20%; in data set [3] (setting [9]), 70%; in data set [4], 90%; in data set [5], 50%; in data set [6] it was 100%.

Take `CN(C)c1c(Cl)ccc(-c2cc(N)c(Cl)c(C(=O)O)n2)c1F` [Compound 112, 4-Amino-3-chloro-6-(4-chloro-3-dimethyamino-2-fluorophenyl)pyridine-2-carboxylic acid]: the “% Control CHEAL” value in data set [1] and in data set [4] was 100% throughout. In addition, the “% Control ABUTH” value in data set [2] and in data set [5] was 100% in each case. Besides, the “% Control AMARE” value in data set [3] and in data set [6] was 100% in each case.

As to `COCCOc1c(Cl)ccc(-c2cc(N)c(Cl)c(C(=O)O)n2)c1F` [Compound 113, 4-Amino-3-chloro-6-(4-chloro-2-fluoro-3-methoxyethoxyphenyl)pyridine-2-carboxylic acid], the melting point is 169 to 170 °C (dec.). In addition, the pest or weed control at 140 g/ha in data set [1] (setting [7]) was 55%. Besides, in data set [2] (setting [8]), the pest or weed control at 140 g/ha was determined as 0%. For the same compound, the pest or weed control at 140 g/ha in data set [3] (setting [9]) worked out at 0%.

As to `COc1cc(-c2nc(C(=O)O)c(Cl)c(N)c2F)c(F)cc1Cl` [Compound 122, 4-Amino-3-chloro-6-(4-chloro-2-fluoro-5-methoxyphenyl)-5-fluoropyridine-2-carboxylic acid], the melting point lay in the range of 180 to 181 °C. In addition, the pest or weed control at 140 g/ha in data set [1] (setting [7]) turned out to be 100%. For the same compound, the pest or weed control at 140 g/ha in data set [2] (setting [8]) worked out at 100%. For the same compound, the pest or weed control at 140 g/ha in data set [3] (setting [9]) was determined as 100%.

Take `COc1c(Cl)ccc(-c2nc(C(=O)O)c(Cl)c(N)c2F)c1F` [Compound 123, 4-Amino-3-chloro-6-(4-chloro-2-fluoro-3-methoxyphenyl)-5-fluoropyridine-2-carboxylic acid]: the pest or weed control at 140 g/ha in data set [1] (setting [7]), in data set [2] (setting [8]), in data set [3] (setting [9]), in data set [4], in data set [5] and in data set [6] was 100% each time.

On to `Nc1cc(-c2ccc(F)c(F)c2F)nc(C(=O)O)c1Cl` [Compound 131, 4-Amino-3-chloro-6-(2,3,4-trifluorophenyl)pyridine-2-carboxlic acid], for which the “% Control CHEAL” value in data set [1] and in data set [4] was 100% throughout. Also, the results for the “% Control ABUTH” value in data set [2] and in data set [5] were 90% and 100%, respectively. For the same compound, the “% Control AMARE” value in data set [3] and in data set [6] was 100% throughout.
